# Assay results as given in PubChem BioAssay (NCI).
#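 Results reflect a 48-hour exposure of cells in 96-well plates to compound at five concentrations. TGI is the concentration that stops growth completely.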
# Columns and labels:
# Experiment in all cases: NCI-60 cell line screen, 48 h
# UACC-257 melanoma = system: UACC-257 melanoma
# M19-MEL melanoma = system: M19-MEL melanoma
# A549 NSCLC = system: A549 NSCLC
# SK-OV-3 ovarian = system: SK-OV-3 ovarian
# SW-620 colon = system: SW-620 colon
# SNB-78 CNS = system: SNB-78 CNS
# HOP-18 NSCLC = system: HOP-18 NSCLC
# NCI-H23 lung = system: NCI-H23 lung
# HOP-62 NSCLC = system: HOP-62 NSCLC
# DMS 273 small cell lung = system: DMS 273 small cell lung
# DMS 114 small cell lung = system: DMS 114 small cell lung
# HT29 colon = system: HT29 colon
# M14 melanoma = system: M14 melanoma
# SNB-75 CNS = system: SNB-75 CNS
# NCI-H226 lung = system: NCI-H226 lung
# HCT-15 colon = system: HCT-15 colon
# MOLT-4 leukemia = system: MOLT-4 leukemia
# KM20L2 colon = system: KM20L2 colon
# UO-31 renal = system: UO-31 renal
# HOP-92 NSCLC = system: HOP-92 NSCLC
# SK-MEL-28 melanoma = system: SK-MEL-28 melanoma
# COLO 205 colon = system: COLO 205 colon
# EKVX NSCLC = system: EKVX NSCLC
# HCT-116 colon = system: HCT-116 colon
# UACC-62 melanoma = system: UACC-62 melanoma
# IGROV1 ovarian = system: IGROV1 ovarian
# SF-268 CNS = system: SF-268 CNS
# SK-MEL-5 melanoma = system: SK-MEL-5 melanoma
# SF-539 CNS = system: SF-539 CNS
# A498 renal = system: A498 renal
# RXF-631 renal = system: RXF-631 renal
# CCRF-CEM leukemia = system: CCRF-CEM leukemia
# SR leukemia = system: SR leukemia
# LOX IMVI melanoma = system: LOX IMVI melanoma
# OVCAR-3 ovarian = system: OVCAR-3 ovarian
# DLD-1 colon = system: DLD-1 colon
# OVCAR-8 ovarian = system: OVCAR-8 ovarian
# XF 498 CNS = system: XF 498 CNS
# OVCAR-4 ovarian = system: OVCAR-4 ovarian
# OVCAR-5 ovarian = system: OVCAR-5 ovarian
# LXFL 529 NSCLC = system: LXFL 529 NSCLC
# MALME-3M melanoma = system: MALME-3M melanoma
# KM12 colon = system: KM12 colon
# HCC-2998 colon = system: HCC-2998 colon
# SK-MEL-2 melanoma = system: SK-MEL-2 melanoma
# NCI-H460 lung = system: NCI-H460 lung
# K-562 leukemia = system: K-562 leukemia
# SN12C renal = system: SN12C renal
# SF-295 CNS = system: SF-295 CNS
# HL-60(TB) leukemia = system: HL-60(TB) leukemia
# U251 CNS = system: U251 CNS
# RXF 393 renal = system: RXF 393 renal
# RPMI-8226 leukemia = system: RPMI-8226 leukemia
# TK-10 renal = system: TK-10 renal
# CAKI-1 renal = system: CAKI-1 renal
# ACHN renal = system: ACHN renal
# SNB-19 CNS = system: SNB-19 CNS
# 786-0 renal = system: 786-0 renal
# NCI-H522 lung = system: NCI-H522 lung
smiles,measurement,setting,value
O=S(=O)(N/N=C/c1c(Cl)cccc1Cl)c1ccccc1,TGI,UACC-257 melanoma,> 100 µM
same,TGI,M19-MEL melanoma,> 100 µM
same,TGI,A549 NSCLC,> 100 µM
same,TGI,SK-OV-3 ovarian,> 100 µM
same,TGI,SW-620 colon,> 100 µM
same,TGI,SNB-78 CNS,> 100 µM
same,TGI,HOP-18 NSCLC,> 100 µM
same,TGI,NCI-H23 lung,> 100 µM
same,TGI,HOP-62 NSCLC,> 100 µM
same,TGI,DMS 273 small cell lung,> 100 µM
same,TGI,DMS 114 small cell lung,> 100 µM
same,TGI,HT29 colon,> 100 µM
same,TGI,M14 melanoma,> 100 µM
same,TGI,SNB-75 CNS,> 100 µM
same,TGI,NCI-H226 lung,> 100 µM
same,TGI,HCT-15 colon,> 100 µM
same,TGI,MOLT-4 leukemia,> 100 µM
same,TGI,KM20L2 colon,> 100 µM
same,TGI,UO-31 renal,> 100 µM
same,TGI,HOP-92 NSCLC,> 100 µM
same,TGI,SK-MEL-28 melanoma,> 100 µM
same,TGI,COLO 205 colon,> 100 µM
same,TGI,EKVX NSCLC,> 100 µM
same,TGI,HCT-116 colon,> 100 µM
same,TGI,UACC-62 melanoma,> 100 µM
same,TGI,IGROV1 ovarian,> 100 µM
same,TGI,SF-268 CNS,> 100 µM
same,TGI,SK-MEL-5 melanoma,> 100 µM
same,TGI,SF-539 CNS,> 100 µM
same,TGI,A498 renal,> 100 µM
same,TGI,RXF-631 renal,> 100 µM
same,TGI,CCRF-CEM leukemia,> 100 µM
same,TGI,SR leukemia,> 100 µM
same,TGI,LOX IMVI melanoma,> 100 µM
same,TGI,OVCAR-3 ovarian,> 100 µM
same,TGI,DLD-1 colon,> 100 µM
same,TGI,OVCAR-8 ovarian,> 100 µM
same,TGI,XF 498 CNS,> 100 µM
same,TGI,OVCAR-4 ovarian,> 100 µM
same,TGI,OVCAR-5 ovarian,> 100 µM
same,TGI,LXFL 529 NSCLC,> 100 µM
same,TGI,MALME-3M melanoma,> 100 µM
same,TGI,KM12 colon,> 100 µM
same,TGI,HCC-2998 colon,> 100 µM
same,TGI,SK-MEL-2 melanoma,> 100 µM
same,TGI,NCI-H460 lung,> 100 µM
same,TGI,K-562 leukemia,> 100 µM
same,TGI,SN12C renal,> 100 µM
same,TGI,SF-295 CNS,> 100 µM
same,TGI,HL-60(TB) leukemia,70.8 µM
same,TGI,U251 CNS,> 100 µM
same,TGI,RXF 393 renal,> 100 µM
same,TGI,RPMI-8226 leukemia,> 100 µM
same,TGI,TK-10 renal,> 100 µM
CCOC(OC1=CCCC1)C(C)[Se]c1ccccc1 (stereo unspecified),TGI,UACC-257 melanoma,> 100 µM
same,TGI,M19-MEL melanoma,66.3 µM
same,TGI,A549 NSCLC,> 100 µM
same,TGI,SK-OV-3 ovarian,> 100 µM
same,TGI,SNB-78 CNS,> 100 µM
same,TGI,HOP-18 NSCLC,> 100 µM
same,TGI,NCI-H23 lung,62.3 µM
same,TGI,HOP-62 NSCLC,> 100 µM
same,TGI,DMS 273 small cell lung,31.3 µM
same,TGI,DMS 114 small cell lung,20.4 µM
same,TGI,HT29 colon,44.4 µM
same,TGI,M14 melanoma,> 100 µM
same,TGI,SNB-75 CNS,90.4 µM
same,TGI,CAKI-1 renal,> 100 µM
same,TGI,NCI-H226 lung,> 100 µM
same,TGI,HCT-15 colon,32 µM
same,TGI,MOLT-4 leukemia,64.6 µM
same,TGI,KM20L2 colon,79.6 µM
same,TGI,UO-31 renal,> 100 µM
same,TGI,HOP-92 NSCLC,81.4 µM
same,TGI,SK-MEL-28 melanoma,> 100 µM
same,TGI,COLO 205 colon,39.9 µM
same,TGI,EKVX NSCLC,> 100 µM
same,TGI,HCT-116 colon,45.1 µM
same,TGI,UACC-62 melanoma,> 100 µM
same,TGI,IGROV1 ovarian,> 100 µM
same,TGI,SF-268 CNS,59 µM
same,TGI,SK-MEL-5 melanoma,52.4 µM
same,TGI,SF-539 CNS,71.7 µM
same,TGI,A498 renal,> 100 µM
same,TGI,RXF-631 renal,41.4 µM
same,TGI,CCRF-CEM leukemia,46.6 µM
same,TGI,SR leukemia,41.2 µM
same,TGI,ACHN renal,> 100 µM
same,TGI,LOX IMVI melanoma,28.9 µM
same,TGI,OVCAR-3 ovarian,> 100 µM
same,TGI,DLD-1 colon,48.4 µM
same,TGI,OVCAR-8 ovarian,> 100 µM
same,TGI,SNB-19 CNS,> 100 µM
same,TGI,XF 498 CNS,45.1 µM
same,TGI,OVCAR-4 ovarian,> 100 µM
same,TGI,OVCAR-5 ovarian,60.6 µM
same,TGI,LXFL 529 NSCLC,> 100 µM
same,TGI,MALME-3M melanoma,88.4 µM
same,TGI,786-0 renal,41.8 µM
same,TGI,KM12 colon,> 100 µM
same,TGI,HCC-2998 colon,> 100 µM
same,TGI,SK-MEL-2 melanoma,> 100 µM
same,TGI,NCI-H460 lung,40.1 µM
same,TGI,K-562 leukemia,> 100 µM
same,TGI,NCI-H522 lung,35.9 µM
same,TGI,SN12C renal,> 100 µM
same,TGI,SF-295 CNS,> 100 µM
same,TGI,HL-60(TB) leukemia,42.9 µM
same,TGI,U251 CNS,83 µM
same,TGI,RXF 393 renal,72.8 µM
same,TGI,RPMI-8226 leukemia,43.7 µM
same,TGI,TK-10 renal,> 100 µM
O=C1C=Cc2c(-c3ccccc3)oc3cccc1c23,TGI,UACC-257 melanoma,> 100 µM
same,TGI,M19-MEL melanoma,> 100 µM
same,TGI,A549 NSCLC,> 100 µM
same,TGI,SK-OV-3 ovarian,> 80.2 µM
same,TGI,SW-620 colon,> 100 µM
same,TGI,SNB-78 CNS,> 100 µM
same,TGI,HOP-18 NSCLC,> 100 µM
same,TGI,NCI-H23 lung,62.9 µM
same,TGI,HOP-62 NSCLC,> 100 µM
same,TGI,DMS 273 small cell lung,> 100 µM
same,TGI,DMS 114 small cell lung,89 µM
same,TGI,HT29 colon,> 100 µM
same,TGI,M14 melanoma,> 100 µM
same,TGI,SNB-75 CNS,81.8 µM
same,TGI,CAKI-1 renal,48.5 µM
same,TGI,NCI-H226 lung,> 70.9 µM
same,TGI,HCT-15 colon,> 75.4 µM
same,TGI,MOLT-4 leukemia,19.5 µM
same,TGI,KM20L2 colon,> 100 µM
same,TGI,UO-31 renal,> 82.6 µM
same,TGI,HOP-92 NSCLC,73.2 µM
same,TGI,SK-MEL-28 melanoma,> 100 µM
same,TGI,COLO 205 colon,> 82.1 µM
same,TGI,EKVX NSCLC,15.5 µM
same,TGI,HCT-116 colon,> 73.1 µM
same,TGI,UACC-62 melanoma,99.1 µM
same,TGI,IGROV1 ovarian,> 100 µM
same,TGI,SF-268 CNS,> 100 µM
same,TGI,SK-MEL-5 melanoma,> 100 µM
same,TGI,SF-539 CNS,> 100 µM
same,TGI,A498 renal,> 100 µM
same,TGI,RXF-631 renal,> 100 µM
same,TGI,CCRF-CEM leukemia,64.6 µM
same,TGI,SR leukemia,> 54.4 µM
same,TGI,ACHN renal,> 76.6 µM
same,TGI,LOX IMVI melanoma,> 52.7 µM
same,TGI,OVCAR-3 ovarian,> 100 µM
same,TGI,DLD-1 colon,> 100 µM
same,TGI,OVCAR-8 ovarian,> 100 µM
same,TGI,SNB-19 CNS,> 100 µM
same,TGI,XF 498 CNS,67.7 µM
same,TGI,OVCAR-4 ovarian,> 100 µM
same,TGI,OVCAR-5 ovarian,> 96 µM
same,TGI,LXFL 529 NSCLC,> 100 µM
same,TGI,MALME-3M melanoma,> 100 µM
same,TGI,786-0 renal,> 100 µM
same,TGI,KM12 colon,> 100 µM
same,TGI,HCC-2998 colon,> 100 µM
same,TGI,SK-MEL-2 melanoma,> 100 µM
same,TGI,NCI-H460 lung,> 80.5 µM
same,TGI,K-562 leukemia,48.1 µM
same,TGI,NCI-H522 lung,> 81 µM
same,TGI,SN12C renal,> 100 µM
same,TGI,SF-295 CNS,> 100 µM
same,TGI,HL-60(TB) leukemia,27.9 µM
same,TGI,U251 CNS,> 100 µM
same,TGI,RXF 393 renal,> 69 µM
same,TGI,RPMI-8226 leukemia,19 µM
same,TGI,TK-10 renal,> 92.2 µM
